What was measured:
AGTR1 [1] = target: T1, AGTR1 (Homo sapiens, UniProt P30556); experiment: DiscoveRx β-arrestin2 recruitment assay (enzyme complementation, Pathunter CHO-K1 AGTR1 β-arrestin cell line); type: cell-based; settings: DiscoveRx β-arrestin2 recruitment; for DiscoveRx β-arrestin2 Ymax (%): maximal response
T1 construct: host or cells: Pathunter CHO-K1 AGTR1 β-arrestin cell line (CHO-K1)
T1 sequence (P30556 1-359): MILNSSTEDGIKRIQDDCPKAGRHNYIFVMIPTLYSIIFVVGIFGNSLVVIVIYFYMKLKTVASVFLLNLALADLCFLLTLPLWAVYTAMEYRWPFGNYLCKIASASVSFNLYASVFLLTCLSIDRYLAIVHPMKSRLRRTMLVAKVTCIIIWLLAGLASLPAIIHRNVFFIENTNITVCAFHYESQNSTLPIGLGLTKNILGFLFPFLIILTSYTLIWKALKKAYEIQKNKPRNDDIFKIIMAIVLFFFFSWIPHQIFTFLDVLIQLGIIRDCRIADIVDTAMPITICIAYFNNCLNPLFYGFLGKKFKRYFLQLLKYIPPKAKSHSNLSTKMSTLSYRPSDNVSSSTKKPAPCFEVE
In short: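 CHO-K1 cells expressing AGTR1 with β-arrestin2 enzyme-complementation reporter, plated 14-16 h ahead in 1% serum medium, then exposed to compounds for 90 min at 37° C. Chemiluminescence read after 1 h detection. EC50 (agonist) or IC50 (antagonist) from 4-parameter logistic fit; activity as percentage of All maximal effect.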

AGTR1 [2] = target: T1, AGTR1; experiment: DiscoveRx IP1 accumulation assay (HTRF), agonist mode, Pathunter CHO-K1 AGTR1 β-arrestin cell line; type: cell-based; settings: for EC50: read-out: IP-1 EC50
In short: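 Agonist mode in CHO-K1 AGTR1 β-arrestin cells plated 14-16 h before; compounds at varying concentrations for 90 min at 37° C, IP1 accumulation read by HTRF (D2-conjugate and anti-IP1 cryptate, 20 min room temperature). EC50 from 4-parameter logistic fit; activity given as percentage of maximal AII effect.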

hAT1R [3] = target: T2, hAT1R (Homo sapiens, UniProt P30556); experiment: BRET β-arrestin2 biosensor assay, higher receptor expression (hAT1R 5 ng/well), HEK293 cells; type: cell-based; settings: for EC50: High AT1R Expression
T2 sequence (P30556 1-359): T1 sequence (P30556 1-359)

hAT1R [4] = target: T2, hAT1R; experiment: cell-based; settings: Low AT1R Expression; for EC50: read-out: BRET β-Arrestin2 Low AT1R Expression EC50
hAT1R [5] = target: T2, hAT1R; experiment: cell-based; settings: agonist mode; for EC50: read-out: BRET P63 EC50

Row | SMILES | EC50 (AGTR1 [1]) | DiscoveRx β-arrestin2 Ymax (%) (AGTR1 [1]) | IP-1 Ymax (%) (AGTR1 [2]) | EC50 (AGTR1 [2]) | BRET β-Arrestin2 High AT1R Expression Ymax (%) (hAT1R [3]) | EC50 (hAT1R [3]) | BRET β-Arrestin2 Low AT1R Expression Ymax (%) (hAT1R [4]) | EC50 (hAT1R [4]) | BRET P63 Ymax (hAT1R [5]) | EC50 (hAT1R [5])
1 | CCc1nc2c(C)cc(C)nc2n1Cc1ccc(-c2cc(C3CCCCO3)ccc2-c2nn[nH]n2)cc1 (single isomer, unassigned) [Example 78, 2-ethyl-5,7-dimethyl-3-((5′-(tetrahydro-2H-pyran-2-yl)-2′-(2H-tetrazol-5-yl)-[1,1′-biphenyl]-4-yl)methyl)-3H-imidazo[4,5-b]pyridine] | 19.9 nM | 50.0% | 37.8% | 79.5 nM | 94.3% | 15 nM | 85.0% | 37.5 nM | 36.1% | 72.3 nM
2 | CCCCC1=NC2(CCOC2)C(=O)N1Cc1ccc(-c2cc(-c3ccccc3)ccc2-c2nnn[nH]2)cc1 (single isomer, unassigned) [Example 146] | 31.6 nM | 34.0% | 8.3% | 76.2 nM | 85.6% | 38.2 nM | 35.0% | 52.6 nM |  | > 100000 nM
3 | CCCCC1=NC2(CCOC2)C(=O)N1Cc1ccc(-c2cc(-c3ccccc3)ccc2-c2nnn[nH]2)cc1 (single isomer, unassigned) [Example 147, 3-((6′-(1H-tetrazol-5-yl)-[1,1′:3′,1″-terphenyl]-4-yl)methyl)-2-butyl-7-oxa-1,3-diazaspiro[4.4]non-1-en-4-one] | 107 nM | 23.0% | 3.6% | 178 nM | 66.6% | 126 nM | 26.1% | 109 nM |  | > 100000 nM
4 | CCc1nc2c(C)cc(C)nc2n1Cc1ccc(-c2cc(-c3ccccc3C)ccc2-c2nn[nH]n2)cc1 [Example 2] | 19.8 nM | 21.8% | 13.1% | 71.8 nM | 74.2% | 11.3 nM | 15.2% | 11 nM | 2.7% | 22 nM
5 | CCc1nc2c(C)cc(C)nc2n1Cc1ccc(-c2cc(-c3ccccc3)ccc2-c2nn[nH]n2)cc1 [Example 4] | 7.5 nM | 48.9% | 9.8% | 19 nM | 95.4% | 3.8 nM | 69.3% | 8.2 nM | 13.0% | 4.8 nM
6 | CCc1nc2c(C)cc(C)nc2n1Cc1ccc(-c2cc(-c3cccc(C)c3)ccc2-c2nn[nH]n2)cc1 [Example 8] | 6 nM | 42.2% | 6.9% | 6 nM | 93.0% | 4.1 nM | 80.5% | 5.4 nM | 14.0% | 7.7 nM
7 | CCc1nc2c(C)cc(C)nc2n1Cc1ccc(-c2cc(-c3cc(C)cc(C)c3)ccc2-c2nn[nH]n2)cc1 [Example 9] | 3.7 nM | 66.7% | 7.1% | 8.7 nM | 87.8% | 5.6 nM | 80.3% | 9.4 nM | 14.2% | 19.5 nM
8 | CCc1nc2c(C)cc(C)nc2n1Cc1ccc(-c2cc(-c3ccccc3O)ccc2-c2nn[nH]n2)cc1 [Example 10] | 1.4 nM | 60.3% | 14.4% | 5 nM | 86.9% | 1.4 nM | 86.8% | 2.4 nM | 26.1% | 2.8 nM
9 | CCc1nc2c(C)cc(C)nc2n1Cc1ccc(-c2cc(-c3cccc(OC)c3)ccc2-c2nn[nH]n2)cc1 [Example 20] | 4.9 nM | 38.7% | 9.9% | 12.8 nM | 85.5% | 4.3 nM | 59.5% | 12.2 nM | 12.0% | 10.8 nM
10 | CCc1nc2c(C)cc(C)nc2n1Cc1ccc(-c2cc(-n3cccn3)ccc2-c2nn[nH]n2)cc1 [Example 25] | 15.9 nM | 23.1% | 6.7% | 40.8 nM | 74.5% | 19.8 nM | 10.1% | 32.9 nM |  | > 100000 nM
11 | CCc1nc2c(C)cc(C)nc2n1Cc1ccc(-c2cc(-c3ccccn3)ccc2-c2nn[nH]n2)cc1 [Example 30, 2-Ethyl-5,7-dimethyl-3-((5′-(pyridin-2-yl)-2′-(2H-tetrazol-5-yl)-[1,1′-biphenyl]-4-yl)methyl)-3H-imidazo[4,5-b]pyridine] | 4.9 nM | 48.0% | 12.3% | 15.9 nM | 87.5% | 5.6 nM | 72.9% | 14.5 nM | 23.5% | 19.1 nM
12 | CCc1nc2c(C)cc(C)nc2n1Cc1ccc(-c2cc(-c3ccccc3)ccc2-c2noc(=O)[nH]2)cc1 [Example 32, 3-(4″-((2-ethyl-5,7-dimethyl-3H-imidazo[4,5-b]pyridin-3-yl)methyl)-[1,1′:3′,1″-terphenyl]-4′-yl)-1,2,4-oxadiazol-5(4H)-one] | 34.3 nM | 86.1% | 10.8% | 38.4 nM | 91.6% | 5.1 nM | 80.9% | 12.5 nM | 25.2% | 21.1 nM
13 | CCCCC1=NC2(CCCC2)C(=O)N1Cc1ccc(-c2cc(-c3ccccc3)ccc2-c2nn[nH]n2)cc1 [Example 33] | 9.7 nM | 29.9% | 3.3% | 80.8 nM | 83.0% | 16.5 nM | 27.5% | 26.7 nM |  | > 10000 nM
14 | CCc1nc2c(C)cc(C)nc2n1Cc1ccc(-c2cc(-c3cc(F)cc(F)c3)ccc2-c2nn[nH]n2)cc1 [Example 53] | 2.6 nM | 39.4% | 5.8% | 7.9 nM | 90.6% | 5.4 nM | 61.8% | 14 nM |  | > 100000 nM
15 | CCc1nc2c(C)cc(C)nc2n1Cc1ccc(-c2cc(-c3nccs3)ccc2-c2nn[nH]n2)cc1 [Example 56] | 58.3 nM | 20.8% |  | > 100000 nM | 63.0% | 48.9 nM | 14.2% | 54 nM | 4.0% | 42.6 nM
16 | CCc1nc2c(C)cc(C)nc2n1Cc1ccc(-c2cc(-c3ccsn3)ccc2-c2nn[nH]n2)cc1 [Example 57] | 16.6 nM | 26.3% |  | > 100000 nM | 66.3% | 15.2 nM | 8.9% | 19.9 nM | 5.0% | 14.3 nM
17 | CCc1nc2c(C)cc(C)nc2n1Cc1ccc(-c2cc(-c3cccc(C)n3)ccc2-c2nn[nH]n2)cc1 [Example 59] | 12.5 nM | 29.5% | 10.4% | 21.9 nM | 52.1% | 14 nM |  | > 10000 nM |  | > 10000 nM
18 | CCc1nc2c(C)cc(C)nc2n1Cc1ccc(-c2cc(-c3cncc(C)c3)ccc2-c2nn[nH]n2)cc1 [Example 60] | 53.7 nM | 33.5% | 5.3% | 83.1 nM | 85.8% | 19.6 nM | 39.4% | 93.3 nM |  | > 10000 nM
